Results taken from PubChem BioAssay AID1361 (SRMLSC, 2008).
Active and inactive are the calls of the source. No rule for the calls is given here.

Test: blockers of mitochondrial fusion, WT vs mutant – cell-based, chemical genetic, wild-type and mutant, confirmation (AID 1361)
Conditions: Cell-based mitochondrial fusion phenotype, imaging
[1] = mutant cells, measured here: mutant cell line IC50

Structure (SMILES)	IC50 (WT cells)	IC50 [1] [µM]
Cc1cccc(N(C)C(=S)Oc2ccc3ccccc3c2)c1	8.79 µM	> 25
Cc1ccccc1/C(N)=N/OC(=O)N1c2ccccc2Sc2ccccc21	16.6 µM	22
O=C(CS(=O)(=O)Cc1ccccc1)Nc1cccnc1	> 25 µM (inactive)	> 25
COc1ccc(-n2ncc3c(NCc4ccco4)ncnc32)cc1	> 25 µM (inactive)	> 25
Cc1ccc(C)c(NC(=O)c2ccccc2C(=O)c2ccccc2)c1	18.2 µM	> 25
COc1ccc(C2=Nc3cccc4cccc(c34)N2)cc1	> 25 µM (inactive)	> 25
COCCN(C(=S)Nc1c(C)cc(C)cc1C)C(C)c1cccs1 (centres undefined)	23.3 µM	> 25
CCc1cc2c(=O)c(-c3cscn3)coc2cc1O	> 25 µM (inactive)	> 25
COc1ccccc1Cn1c(/C=C/c2ccccc2)nc2ccccc21	9.02 µM (inactive)	8.43
COc1ccc(-c2nc3n(c(=O)c2C#N)CCCS3)cc1	> 25 µM (inactive)	> 25
CCN(Cc1cc2cc(C)ccc2[nH]c1=O)C(=O)c1cccc(OC)c1	> 25 µM (inactive)	> 25
Clc1cccc(N=C2NN=C(c3ccc4c(c3)OCCO4)CS2)c1	15.9 µM	> 25
COc1ccc(-c2nc(-c3ccccc3)[nH]c(=O)c2C#N)cc1	> 25 µM (inactive)	> 25
Cc1ccc(S(=O)(=O)NCc2ccco2)c(C)c1C	> 25 µM (inactive)	> 25
COC(=O)c1cn(N(C)c2ncc(C(F)(F)F)cc2Cl)c(=O)c2ccccc12	15.8 µM (inactive)	15.5
Cc1cc(Oc2cnn(C(C)(C)C)c(=O)c2Cl)cc(C(C)C)c1	16.9 µM	> 25
CCOC(=O)C1=C(C)N=C2SCCC(=O)N2C1c1sccc1C (centres undefined)	> 25 µM (inactive)	> 25
COc1ccc(C(=O)NN(C)c2nc(-c3ccccc3)nnc2C(F)(F)F)cc1	> 25 µM (inactive)	> 25
O=C(c1cc(-c2ccccc2)nc2ccccc12)N1CCCc2ccccc21	13.7 µM	> 25
CCOC(=O)C1=CN(c2cccc(F)c2)C=C(C(=O)OCC)C1c1cc(OC)c(O)c([N+](=O)[O-])c1	5.68 µM	> 25
CC1CC(C)(C)N2C(=O)C3(Nc4ccccc4S3)c3cccc1c32 (centres undefined)	> 25 µM (inactive)	> 25

Structure (SMILES)	IC50 (WT cells)	IC50 [1] [µM]
COc1ccc(NS(=O)(=O)c2cc(C(=O)O)ccc2C)cc1	> 25 µM (inactive)	> 25
Clc1ccccc1Cn1c(/C=C/c2ccco2)nc2ccccc21	11.6 µM	25
C/C(N)=C(/C#N)C(=O)CSc1nnnn1-c1ccccc1	> 25 µM (inactive)	> 25
COc1ccc(Br)cc1CN(C)CC(=O)Nc1ccccc1Cl	19.8 µM	> 25
CCN(c1ccc2c(c1)OCO2)S(=O)(=O)c1cc(Br)cc2c1N(C(=O)C1CC1)CC2	13.3 µM	> 25
COc1ccc(CC(=O)N2CCOCC2)cc1OC	> 25 µM (inactive)	> 25
Cc1ccc(C)c(C(=O)COC(=O)c2cc([N+](=O)[O-])ccc2NCCO)c1	25 µM (inactive)	> 12.5
Cc1ccccc1S(=O)(=O)c1c(C)cc(C)n(CC(C)C)c1=O	> 25 µM (inactive)	> 25
C=C(C)C1CC=C(C)/C(=N\NC(=S)Nc2ccc(C)cc2)C1 (centres undefined)	> 25 µM (inactive)	> 25
O=c1oc(Nc2cccc(F)c2)nc2ccccc12	> 25 µM (inactive)	> 25
O=C(/C=C/Nc1cccc(C(F)(F)F)c1)C(F)(F)F	> 25 µM (inactive)	> 25
Cc1ccc2c(N)c(C#N)sc2n1	> 25 µM (inactive)	> 25
Cc1cc(N2CCN(C(c3ccccc3)c3ccc(Cl)cc3)CC2)n2ncnc2n1 (centres undefined)	13.7 µM	22.3
C[C@]1(C(=O)NCCCNc2ncc(C(F)(F)F)cc2Cl)C=C[C@@H](Cc2ccccc2)N1C(=O)c1ccccc1	11.9 µM	> 25
CCOC(=O)c1[nH]c2ccc(OC)cc2c1NC(=O)C(C)N1CCC2(CC1)OCCO2 (centres undefined)	> 25 µM (inactive)	> 25
COc1cc(OC)cc(C(=O)N2CCC(n3c(C)nc4cc(F)ccc43)CC2)c1	> 25 µM (inactive)	> 25
Cc1ccc(C(=O)NCc2ccc(N3CCN(C(=O)OC(C)(C)C)CC3)cc2)cc1	> 25 µM (inactive)	> 25
CCCOc1ccc(Cc2c(Cl)nc(SC)nc2N(C)C)cc1	9.94 µM	> 25
CCCCN(C(=O)c1cccc2c(=O)c(C)c(-c3ccccc3)oc12)c1ccccc1	14.7 µM	> 25
N#CC(C#N)=C1C=CC=CN1/C(=C\c1ccccc1Cl)C(=O)c1ccccc1	18.6 µM	> 25
Cc1cccc(N2CCN(C(=O)c3ccc(Cl)c(S(=O)(=O)NCc4ccco4)c3)CC2)c1C	> 25 µM (inactive)	> 25

Structure (SMILES)	IC50 (WT cells)	IC50 [1] [µM]
O/N=C(\c1ccc(Cl)cc1Cl)c1ncc(C(F)(F)F)cc1Cl	20.9 µM	> 25
NS(=O)(=O)c1ccc(N2N=C(c3ccccc3)CC2c2ccccc2)cc1 (centres undefined)	12.1 µM	> 25
CCCCOP(=O)(c1ccc(N(C)C)cc1)C(Nc1ccccc1)c1ccccc1 (centres undefined)	14.1 µM	> 25
Cc1ccc(S(=O)(=O)n2c3ccc(Cl)cc3c3nc(C)sc32)cc1	9.63 µM	> 25
Cn1c(CCN2CCN(c3ccccc3)CC2)nc2cc(NC(=O)c3ccco3)ccc21	> 25 µM (inactive)	> 25
CC(C)(C)n1nnnc1C(c1cccs1)N(Cc1cccnc1)Cc1ccccc1Cl (centres undefined)	23.2 µM	> 25
c1ccc(-c2csc3ncnc(N4CCc5ccccc5C4)c23)cc1	9.44 µM	> 25
Cc1cccc(C(=O)NC(C(=O)Nc2nc(-c3ccccn3)cs2)C(C)C)c1 (centres undefined)	20.8 µM	> 25
Cn1c(Oc2ccc3c(c2)OCO3)nc2c1c(=O)n(Cc1ccccc1)c(=O)n2C	> 25 µM (inactive)	> 25
COC(=O)c1c(N)n(Cc2ccc(OC)cc2)c2nc3ccccc3nc12	> 25 µM (inactive)	> 25
Cn1c(=O)cc(OCCCC(=O)N2CCN(c3ccccc3)CC2)c2ccccc21	> 25 µM (inactive)	> 25
CC(C)c1ccc(OCC(O)Cn2cnc3ccccc32)cc1 (centres undefined)	> 25 µM (inactive)	> 25
Cc1ccnc(NS(=O)(=O)c2ccc(N=CC3=C(O)CC(C)(C)CC3=O)cc2)n1	> 25 µM (inactive)	> 25
N/C(Cc1ccccc1)=N\OC(=O)c1cccc2ccccc12	14.8 µM (inactive)	14.6
Cc1ccc2c(c1)c1c(n2CC(O)Cn2nc(C)c(Br)c2C)CCCC1 (centres undefined)	12.3 µM	22.8
O=c1c2cn[nH]c2nc(SCc2ccccc2F)n1-c1ccc(Br)cc1	11.2 µM	23.8
Cc1nnc(NC(=O)c2sc3nc(-c4cccs4)cc(C(F)(F)F)c3c2N)s1	> 25 µM (inactive)	> 25
Cc1ccc(-c2cc(C(F)F)n3ncc(C(=O)N4CCN5CCCC5C4)c3n2)cc1 (centres undefined)	> 25 µM (inactive)	> 25
CC(=O)Nc1cccc(Oc2ncnc3scc(-c4ccc(C(C)C)cc4)c23)c1	14.5 µM	> 25
Cc1csc(NC(=O)c2c(O)c3c(n(CC(C)C)c2=O)CCCC3)n1	14.7 µM	> 25
Cc1ccc(NC(=O)CCC(=O)OCC(=O)c2ccc(Oc3ccc([N+](=O)[O-])cc3)cc2)cc1C	> 25 µM (inactive)	> 25

Structure (SMILES)	IC50 (WT cells)	IC50 [1] [µM]
Cc1ccc(-n2c(-c3ccccc3)cc(/C=N/NC(=O)CC#N)c2-c2ccccc2)cc1	> 25 µM (inactive)	> 25
Cc1ccc2c(CSc3nnc(C4CC4)n3N)cc(=O)oc2c1C	> 25 µM (inactive)	> 25
CCOC(=O)C(C)c1nc2ccccc2[nH]c1=O (centres undefined)	> 25 µM (inactive)	> 25
Cc1ccc(CNCC(O)(c2ccccc2)c2ccc(F)cc2)cc1 (centres undefined)	> 25 µM (inactive)	> 25
Cc1ccc(C)c(N2CCN(C(=O)Cc3cn(C)c4ccccc34)CC2)c1	21.9 µM	> 25
Cc1ccc(CC2SC(=Nc3ccccc3)N(c3ccccc3)C2=O)cc1 (centres undefined)	18.7 µM	> 25
CCOc1ccccc1N1CCN(C(=O)Nc2ccc(Cl)c(Cl)c2)CC1	20.9 µM (inactive)	> 12.5
O=C(CN1CCN(c2ccccn2)CC1)N1c2ccccc2Sc2ccc(C(F)(F)F)cc21	16 µM	> 25
COc1ccccc1N1CCN(C(=O)c2oc3cc(C)cc(C)c3c2C)CC1	23.9 µM	> 25
O=C(Nc1ccc2c(c1)nc1n2CCN(Cc2ccccc2)C1)c1cccs1	> 25 µM (inactive)	> 25
Cc1cc(C)cc(NC(=S)Nc2cccc3cnccc23)c1	> 25 µM (inactive)	> 25
COc1ccccc1C(=O)NC(=S)/C=C1/N(C)c2ccccc2C1(C)C	10.8 µM	> 25
CCOC(=O)c1c(C)[nH]c(C)c1C(=O)COC(=O)/C=C/c1cccc(C(F)(F)F)c1	20.6 µM	> 25
CC(=O)c1ccc(-n2nnnc2SCC(=O)Nc2cccc(NC(=O)c3ccco3)c2)cc1	> 25 µM (inactive)	> 25
CCOC(=O)C1=C(C)NC(C)=C(C(=O)OC)C1c1cccc(Cl)c1Cl (centres undefined)	20.4 µM	> 25
Cc1nnc(SCC(=O)N2c3ccccc3C(C)(c3ccc(Cl)cc3)CC2(C)C)s1 (centres undefined)	5.21 µM	> 25
CCN(CC)C(=O)C1CC(=O)N(c2ccc(F)c(Cl)c2)C1 (centres undefined)	> 25 µM (inactive)	> 25
CC(C(=O)Nc1ccc(Cl)cc1Cl)N1CC=C(c2ccccc2)CC1 (centres undefined)	8.63 µM	13.3
Cc1ccc(-n2cc(-c3ccccc3)c3c(N4CCOCC4)ncnc32)cc1	21 µM	> 25
